Experimental data from patent publication US20240391931A1 (Bristol-Myers Squibb Company, priority 2021, published 2024).

How the values were obtained:
HER2 WT = target: T1, HER2 WT (Homo sapiens, UniProt P04626); assay: Enzymatic assay HER2 WT (method a); assay type: biochemical; settings: [HER2 WT]=12.5 nM, [ATP]=25 μM, [Peptide 22]=1 μM
T1 construct: purchased ProQinase, Freiburg, Germany ERBB2 0108-0000-1
Method in brief: (§1)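 Microfluidic mobility-shift kinase assay with Peptide 22 (1 μM) in HEPES pH 7.5, MnCl2, MgCl2, Tween 20, TCEP. HER2 WT 12.5 nM and HER2 YVMA 5 nM each used 25 μM ATP; EGFR WT 2 nM used 1 mM ATP. IC50 came from initial-velocity (0–3600 s) percent inhibition, fitted to a variable-slope model.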

EGFR = EGFR (Homo sapiens, UniProt P00533); assay: EGFR signaling (pEGFR Tyr1068/total EGFR MSD) in A431 cells; assay type: cell-based; design: endogenous in cells; host or cells: A431, N87; settings: for EC50: A431 cells, read-out: A431 pEGFR EC50; for Selectivity A431 EC50/BT474 EC50: ratio A431 pEGFR EC50 to BT474 pHER2 EC50; for Selectivity A431 EC50/HEKYVMA EC50: ratio A431 pEGFR EC50 to HEK YVMA pHER2 EC50
EGFR, sequence (P00533 25-1210): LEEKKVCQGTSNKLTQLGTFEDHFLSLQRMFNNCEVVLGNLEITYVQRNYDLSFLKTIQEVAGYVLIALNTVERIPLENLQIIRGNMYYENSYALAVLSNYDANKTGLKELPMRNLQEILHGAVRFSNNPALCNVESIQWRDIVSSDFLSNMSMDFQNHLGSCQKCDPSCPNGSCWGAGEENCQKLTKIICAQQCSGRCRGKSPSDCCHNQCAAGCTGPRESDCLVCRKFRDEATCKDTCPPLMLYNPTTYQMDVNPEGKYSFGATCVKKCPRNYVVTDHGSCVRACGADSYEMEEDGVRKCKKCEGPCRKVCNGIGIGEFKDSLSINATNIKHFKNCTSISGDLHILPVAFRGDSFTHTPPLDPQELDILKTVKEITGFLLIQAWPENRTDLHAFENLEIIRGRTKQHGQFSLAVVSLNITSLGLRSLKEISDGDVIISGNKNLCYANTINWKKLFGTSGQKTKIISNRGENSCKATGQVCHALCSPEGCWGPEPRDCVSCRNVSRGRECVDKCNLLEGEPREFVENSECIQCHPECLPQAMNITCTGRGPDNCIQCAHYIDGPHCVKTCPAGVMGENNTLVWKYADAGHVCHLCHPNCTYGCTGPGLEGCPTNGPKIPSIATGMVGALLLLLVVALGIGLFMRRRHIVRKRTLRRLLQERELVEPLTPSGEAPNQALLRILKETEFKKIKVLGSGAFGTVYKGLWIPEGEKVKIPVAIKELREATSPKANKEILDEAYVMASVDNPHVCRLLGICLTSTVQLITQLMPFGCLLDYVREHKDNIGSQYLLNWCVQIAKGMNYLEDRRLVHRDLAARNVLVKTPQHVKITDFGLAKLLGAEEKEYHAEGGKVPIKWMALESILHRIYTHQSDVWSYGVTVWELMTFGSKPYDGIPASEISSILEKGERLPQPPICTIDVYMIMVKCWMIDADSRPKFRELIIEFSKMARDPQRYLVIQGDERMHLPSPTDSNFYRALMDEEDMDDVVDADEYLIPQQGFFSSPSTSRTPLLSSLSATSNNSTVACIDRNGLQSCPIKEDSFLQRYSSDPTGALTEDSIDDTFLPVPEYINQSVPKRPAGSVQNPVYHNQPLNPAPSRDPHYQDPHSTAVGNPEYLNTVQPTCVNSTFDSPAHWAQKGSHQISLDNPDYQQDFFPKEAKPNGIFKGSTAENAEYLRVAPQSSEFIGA
Method in brief: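 Serum-starved A431 cells were pretreated 1.5 h in 1% FBS with compound (0.005–10 μM, 0.1% DMSO), then stimulated with 100 ng/mL human EGF for 10 min. Lysate pEGFR Tyr1068 was measured by MSD and normalized to total EGFR as % DMSO control; EC50 from variable-slope sigmoidal fit.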

HER2YVMA = HER2YVMA (Homo sapiens, UniProt P04626, INS775YVMA); assay: Enzymatic assay HER2YVMA (method b); assay type: biochemical; design: purchased Viva biotech, Shanghai, China custom purification; settings: [HER2YVMA]=5 nM, [ATP]=25 μM, [Peptide 22]=1 μM
HER2YVMA, sequence (P04626 with tags, fused parts or gaps INS775YVMA): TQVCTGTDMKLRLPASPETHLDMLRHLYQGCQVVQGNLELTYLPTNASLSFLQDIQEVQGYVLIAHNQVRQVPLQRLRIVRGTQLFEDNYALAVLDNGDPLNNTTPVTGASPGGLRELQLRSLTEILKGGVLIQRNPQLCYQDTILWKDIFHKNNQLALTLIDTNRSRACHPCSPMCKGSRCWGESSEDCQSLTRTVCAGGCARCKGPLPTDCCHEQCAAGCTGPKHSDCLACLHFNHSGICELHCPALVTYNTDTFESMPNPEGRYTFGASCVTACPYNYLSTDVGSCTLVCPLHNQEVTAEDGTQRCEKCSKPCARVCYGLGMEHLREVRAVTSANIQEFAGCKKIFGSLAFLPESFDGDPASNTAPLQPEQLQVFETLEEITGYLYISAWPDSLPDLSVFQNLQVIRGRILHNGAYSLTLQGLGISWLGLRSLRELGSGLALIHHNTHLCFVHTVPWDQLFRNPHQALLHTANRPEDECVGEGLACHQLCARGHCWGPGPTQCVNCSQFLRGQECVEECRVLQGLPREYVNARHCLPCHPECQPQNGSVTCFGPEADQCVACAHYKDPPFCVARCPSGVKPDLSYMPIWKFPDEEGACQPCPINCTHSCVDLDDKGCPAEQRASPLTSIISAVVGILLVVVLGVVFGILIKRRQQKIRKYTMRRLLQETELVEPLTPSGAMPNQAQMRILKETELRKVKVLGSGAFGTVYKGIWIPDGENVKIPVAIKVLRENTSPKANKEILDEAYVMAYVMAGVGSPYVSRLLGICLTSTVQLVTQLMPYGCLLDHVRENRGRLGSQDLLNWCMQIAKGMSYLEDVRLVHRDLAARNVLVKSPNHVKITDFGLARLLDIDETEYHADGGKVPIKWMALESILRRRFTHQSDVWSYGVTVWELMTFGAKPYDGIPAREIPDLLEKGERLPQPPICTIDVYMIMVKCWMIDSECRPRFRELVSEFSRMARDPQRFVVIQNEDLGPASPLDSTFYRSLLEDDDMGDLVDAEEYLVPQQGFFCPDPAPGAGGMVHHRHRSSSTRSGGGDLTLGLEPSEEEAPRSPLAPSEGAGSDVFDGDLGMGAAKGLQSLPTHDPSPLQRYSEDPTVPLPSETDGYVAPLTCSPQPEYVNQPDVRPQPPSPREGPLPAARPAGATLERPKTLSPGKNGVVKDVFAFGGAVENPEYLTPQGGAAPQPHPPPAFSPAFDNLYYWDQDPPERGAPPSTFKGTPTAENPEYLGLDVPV
Method in brief: as §1

T1 sequence (P04626 23-1255): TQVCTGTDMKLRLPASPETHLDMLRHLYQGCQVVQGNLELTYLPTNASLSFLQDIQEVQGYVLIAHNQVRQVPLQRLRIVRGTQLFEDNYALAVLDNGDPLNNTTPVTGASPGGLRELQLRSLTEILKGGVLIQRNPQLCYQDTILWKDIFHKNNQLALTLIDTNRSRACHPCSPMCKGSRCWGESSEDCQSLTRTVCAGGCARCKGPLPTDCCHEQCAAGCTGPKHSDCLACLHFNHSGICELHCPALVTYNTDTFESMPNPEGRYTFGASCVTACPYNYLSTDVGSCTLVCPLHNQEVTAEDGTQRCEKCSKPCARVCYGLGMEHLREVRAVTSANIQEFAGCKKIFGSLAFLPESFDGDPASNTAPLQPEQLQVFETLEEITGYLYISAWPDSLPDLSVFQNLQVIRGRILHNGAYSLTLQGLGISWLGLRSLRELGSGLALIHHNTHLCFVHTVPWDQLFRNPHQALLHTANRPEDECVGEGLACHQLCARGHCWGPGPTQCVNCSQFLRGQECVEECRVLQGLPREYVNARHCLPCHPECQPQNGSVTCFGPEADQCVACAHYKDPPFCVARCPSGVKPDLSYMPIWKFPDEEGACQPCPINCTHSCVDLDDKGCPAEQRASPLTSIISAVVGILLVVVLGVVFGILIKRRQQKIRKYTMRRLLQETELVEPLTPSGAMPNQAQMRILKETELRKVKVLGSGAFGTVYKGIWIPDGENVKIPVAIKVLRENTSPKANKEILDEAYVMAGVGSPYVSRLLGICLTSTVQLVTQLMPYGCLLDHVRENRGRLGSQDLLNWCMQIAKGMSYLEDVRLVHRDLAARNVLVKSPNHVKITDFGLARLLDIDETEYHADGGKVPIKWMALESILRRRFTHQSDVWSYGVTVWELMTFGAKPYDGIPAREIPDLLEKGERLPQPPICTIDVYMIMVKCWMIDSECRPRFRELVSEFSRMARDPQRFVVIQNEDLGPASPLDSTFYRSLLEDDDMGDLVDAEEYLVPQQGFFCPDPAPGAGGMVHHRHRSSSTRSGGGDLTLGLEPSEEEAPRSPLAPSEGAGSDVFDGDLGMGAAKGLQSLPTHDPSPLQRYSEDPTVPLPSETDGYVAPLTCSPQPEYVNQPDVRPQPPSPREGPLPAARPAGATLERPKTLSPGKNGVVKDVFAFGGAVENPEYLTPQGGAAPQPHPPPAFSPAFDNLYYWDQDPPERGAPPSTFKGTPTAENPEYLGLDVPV

In the case of Cc1ccc(Oc2ccc(Nc3ncnc4sc5c(c34)C(C)CN(C(=O)C=CCN(C)C)C5)cc2C)cn1 (single isomer, unassigned) [Compound 105], the IC50 (HER2 WT) is reported as under 100 nM, the EC50 (EGFR) is reported as 100 to 1000 nM and the “Selectivity A431 EC50/BT474 EC50” value (EGFR) is reported as “C (C: ≥ 10 and < 20)”. The “Selectivity A431 EC50/HEKYVMA EC50” value (EGFR) was “D (D: ≥ 5 and < 10)” and the IC50 (HER2YVMA) was under 100 nM.

For Cc1ccc(Oc2ccc(Nc3ncnc4sc5c(c34)C(C)CN(C(=O)C=CCN(C)C)C5)cc2C)cn1 (single isomer, unassigned) [Compound 106], the IC50 (HER2 WT) was under 100 nM, the EC50 (EGFR) was 100 to 1000 nM and the “Selectivity A431 EC50/BT474 EC50” value (EGFR) was “B (B: ≥ 20 and < 100)”. The “Selectivity A431 EC50/HEKYVMA EC50” value (EGFR) was “C (C: ≥ 10 and < 20)” and the IC50 (HER2YVMA) was under 100 nM.

With Cc1cc(Nc2ncnc3sc4c(c23)CCN(C(=O)/C=C/CN(C)C)C4)ccc1Oc1ccc2ncnn2c1 [Compound 3, (E)-1-(4-((4-([1,2,4]triazolo[1,5-a]pyridin-6-yloxy)-3-methylphenyl)amino)-5,8-dihydropyrido[4′,3′:4,5]thieno[2,3-d]pyrimidin-7(6H)-yl)-4-(dimethylamino)but-2-en-1-one] the IC50 (HER2 WT) was under 100 nM, the EC50 (EGFR) was 100 to 1000 nM and the “Selectivity A431 EC50/BT474 EC50” value (EGFR) was “B (B: ≥ 20 and < 100)”. The “Selectivity A431 EC50/HEKYVMA EC50” value (EGFR) was “E (E: >1 and < 5)” and the IC50 (HER2YVMA) was 100 to 1000 nM.

C=CC(=O)N1CCc2c(sc3ncnc(Nc4ccc(Oc5ccc6ncnn6c5)c(Cl)c4)c23)C1 [Compound 4, 1-(4-((4-([1,2,4]triazolo[1,5-a]pyridin-6-yloxy)-3-chlorophenyl)amino)-5,8-dihydropyrido[4′,3′:4,5]thieno[2,3-d]pyrimidin-7(6H)-yl)prop-2-en-1-one] was tested, and the IC50 (HER2 WT) was under 100 nM, the EC50 (EGFR) was 100 to 1000 nM and the “Selectivity A431 EC50/BT474 EC50” value (EGFR) was “B (B: ≥ 20 and < 100)”. For the same compound, the “Selectivity A431 EC50/HEKYVMA EC50” value (EGFR) was “A (A: ≥100)” and the IC50 (HER2YVMA) was under 100 nM.

For CN(C)C/C=C/C(=O)N1CCc2c(sc3ncnc(Nc4ccc(Oc5ccc6ncnn6c5)c(Cl)c4)c23)C1 [Compound 5, (E)-1-(4-((4-([1,2,4]triazolo[1,5-a]pyridin-6-yloxy)-3-chlorophenyl)amino)-5,8-dihydropyrido[4′,3′:4,5]thieno[2,3-d]pyrimidin-7(6H)-yl)-4-(dimethylamino)but-2-en-1-one], the IC50 (HER2 WT) was under 100 nM, the EC50 (EGFR) was 100 to 1000 nM and the “Selectivity A431 EC50/HEKYVMA EC50” value (EGFR) was “B (B: ≥ 20 and < 100)”. For the same compound, the IC50 (HER2YVMA) was under 100 nM.

Cc1cc(Nc2ncnc3sc4c(c23)CCN(C(=O)/C=C/CN2CC3CCC(C3)C2)C4)ccc1Oc1ccc2ncnn2c1 [Compound 20] was tested, and the IC50 (HER2 WT) was under 100 nM, the EC50 (EGFR) was under 100 nM and the “Selectivity A431 EC50/BT474 EC50” value (EGFR) was “B (B: ≥ 20 and < 100)”. For the same compound, the “Selectivity A431 EC50/HEKYVMA EC50” value (EGFR) was “B (B: ≥ 20 and < 100)” and the IC50 (HER2YVMA) was under 100 nM.

Cc1ncc(Oc2ccc(Nc3ncnc4sc5c(c34)CCN(C(=O)/C=C/CN(C)C)C5)cc2C)cn1 [Compound 21, (E)-4-(dimethylamino)-1-(4-((3-methyl-4-((2-methylpyrimidin-5-yl)oxy)phenyl)amino)-5,8-dihydropyrido[4′,3′:4,5]thieno[2,3-d]pyrimidin-7(6H)-yl)but-2-en-1-one] was tested, and the IC50 (HER2 WT) was 100 to 1000 nM, the EC50 (EGFR) was 100 to 1000 nM and the “Selectivity A431 EC50/BT474 EC50” value (EGFR) was “B (B: ≥ 20 and < 100)”. For the same compound, the “Selectivity A431 EC50/HEKYVMA EC50” value (EGFR) was “B (B: ≥ 20 and < 100)” and the IC50 (HER2YVMA) was 100 to 1000 nM.

In the case of Cc1cc(Nc2ncnc3sc4c(c23)CCN(C(=O)/C=C/CN(C)C)C4)ccc1Oc1ccc2[nH]ncc2c1 [Compound 22, (E)-1-(4-((4-((1H-indazol-5-yl)oxy)-3-methylphenyl)amino)-5,8-dihydropyrido[4′,3′:4,5]thieno[2,3-d]pyrimidin-7(6H)-yl)-4-(dimethylamino)but-2-en-1-one], the IC50 (HER2 WT) is reported as under 100 nM, the EC50 (EGFR) is reported as under 100 nM and the “Selectivity A431 EC50/BT474 EC50” value (EGFR) is reported as “D (D: ≥ 5 and < 10)”. For the same compound, the “Selectivity A431 EC50/HEKYVMA EC50” value (EGFR) was “E (E: >1 and < 5)” and the IC50 (HER2YVMA) was under 100 nM.

For Cc1cc(Nc2ncnc3sc4c(c23)CCN(C(=O)/C=C/CN(C)C)C4)ccc1Oc1ccc2cn[nH]c2c1 [Compound 23, (E)-1-(4-((4-((1H-indazol-6-yl)oxy)-3-methylphenyl)amino)-5,8-dihydropyrido[4′,3′:4,5]thieno[2,3-d]pyrimidin-7(6H)-yl)-4-(dimethylamino)but-2-en-1-one], the IC50 (HER2 WT) was under 100 nM, the EC50 (EGFR) was under 100 nM and the “Selectivity A431 EC50/BT474 EC50” value (EGFR) was “D (D: ≥ 5 and < 10)”. The “Selectivity A431 EC50/HEKYVMA EC50” value (EGFR) was “E (E: >1 and < 5)” and the IC50 (HER2YVMA) was under 100 nM.

For Cc1ccc(Oc2ccc(Nc3ncnc4sc5c(c34)CCN(C(=O)/C=C/CN3CC4CC3CO4)C5)cc2C)cn1 (centres unmarked) [Compound 26], the IC50 (HER2 WT) was under 100 nM, the EC50 (EGFR) was under 100 nM and the “Selectivity A431 EC50/BT474 EC50” value (EGFR) was “D (D: ≥ 5 and < 10)”. For the same compound, the “Selectivity A431 EC50/HEKYVMA EC50” value (EGFR) was “D (D: ≥ 5 and < 10)” and the IC50 (HER2YVMA) was under 100 nM.

With Cc1ccc(Oc2ccc(Nc3ncnc4sc5c(c34)CCN(C(=O)/C=C/CN(C)C(C)(C)C)C5)cc2C)cn1 [Compound 33] the IC50 (HER2 WT) was under 100 nM, the EC50 (EGFR) was 100 to 1000 nM and the “Selectivity A431 EC50/BT474 EC50” value (EGFR) was “B (B: ≥ 20 and < 100)”. The “Selectivity A431 EC50/HEKYVMA EC50” value (EGFR) was “C (C: ≥ 10 and < 20)” and the IC50 (HER2YVMA) was under 100 nM.

With Cc1ccc(Oc2ccc(Nc3ncnc4sc5c(c34)CCN(C(=O)/C=C/CN3CC4C(CO)C4C3)C5)cc2C)cn1 (centres unmarked) [Compound 34] the IC50 (HER2 WT) was under 100 nM, the EC50 (EGFR) was 100 to 1000 nM and the “Selectivity A431 EC50/BT474 EC50” value (EGFR) was “C (C: ≥ 10 and < 20)”. The “Selectivity A431 EC50/HEKYVMA EC50” value (EGFR) was “E (E: >1 and < 5)” and the IC50 (HER2YVMA) was under 100 nM.
